Experimental data reported in the NIST ThermoML archive (doi:10.1021/je301220s).
± gives the expanded uncertainty stated by the source.

Conditions: Liquid; for mass density: 298.15 K, 101.33 kPa, Vibrating tube method

Cc1ccccc1C [1,2-dimethylbenzene]
mass density: 875.81 ± 0.16 kg/m3 | Normal boiling temperature: 144.40 ± 0.5 °C

Cc1cccc(C)c1 [1,3-dimethylbenzene]
mass density: 860.06 ± 0.16 kg/m3 | Normal boiling temperature: 139.13 ± 0.5 °C

Cc1ccc(C)cc1 [1,4-dimethylbenzene]
mass density: 856.54 ± 0.16 kg/m3 | Normal boiling temperature: 138.28 ± 0.5 °C

CCC(C)CO (stereo not given) [2-methyl-1-butanol]
mass density: 814.83 ± 0.17 kg/m3 | Normal boiling temperature: 128.76 ± 0.5 °C

CCc1ccccc1 [ethylbenzene]
mass density: 862.57 ± 0.16 kg/m3 | Normal boiling temperature: 136.16 ± 0.5 °C
